Test results reported in publication PMC4127523, “A novel 11β-hydroxysteroid dehydrogenase type1 inhibitor CNX-010-49 improves hyperglycemia, lipid profile and reduces body weight in diet induced obese C57B6/J mice with a potential to provide cardio protective benefits” (BMC Pharmacology & Toxicology, 2014).

Target: T1, 11β-hydroxysteroid dehydrogenase type 1 (11β-HSD1), mouse isoform (Mus musculus, UniProt P50172)
T1 construct: gene Hsd11b1; native 11β-HSD1 in differentiated C2C12 myotubes
Test: Cell-based cortisone to cortisol conversion in C2C12 myotubes, LCMS/MS

T1 sequence (P50172 whole entry, canonical isoform): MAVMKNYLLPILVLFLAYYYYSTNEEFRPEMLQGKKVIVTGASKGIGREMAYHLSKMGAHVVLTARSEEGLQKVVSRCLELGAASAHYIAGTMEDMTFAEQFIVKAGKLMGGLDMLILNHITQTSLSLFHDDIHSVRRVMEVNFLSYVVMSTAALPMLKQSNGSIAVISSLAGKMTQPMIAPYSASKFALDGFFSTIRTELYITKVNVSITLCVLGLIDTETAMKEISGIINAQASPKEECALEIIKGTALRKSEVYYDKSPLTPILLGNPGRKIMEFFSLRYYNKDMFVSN

IC50: 64 nM
Substance: CNX-010-49
